The numbers were not newly measured in patent US20240115670A1, “FIBROBLAST ACTIVATION PROTEIN MODULATION TO ALTER IMMUNE CELL MIGRATION AND TUMOR INFILTRATION” (Georgetown University, priority 2021, published 2024), which cites them from elsewhere.

One data set addresses serum DPPIV (Homo sapiens, UniProt P27487). To be noted: cited from earlier work.
For data set [1], the system named is syngeneic tumors derived from fibrosarcoma, lymphoma, melanoma, mastocytoma, rhabdomyosarcoma and bladder cancer cell lines. The conditions noted are these: oral administration; cited from earlier work.
The test system of data set [2] is advanced metastatic colorectal cancer. To be noted: cited from earlier work.
Another data set concerns myeloma cells. To be noted: coculture with osteoclasts; cited from earlier work.
The test system of data set [3] is advanced non-small cell lung cancer. The conditions noted are these: cited from earlier work.
The subject of the next data set is colon carcinoma. The conditions noted are these: combination with oxaliplatin; cited from earlier work.
The test system of the next data set is myeloma. To be noted: in vivo; cited from earlier work.
In data set [4] the test system is primitive hematopoietic progenitor cells. The conditions noted are these: by increasing G-CSF, IL-6, and IL-11 from bone marrow stromal cells; cited from earlier work.
The subject of another data set is stage IV melanoma. The conditions noted are these: cited from earlier work.
Another data set has as its system gastric cancer. The conditions noted are these: via downregulation of FAP; cited from earlier work.
In another data set the test system is CAF. To be noted: via downregulation of FAP; cited from earlier work.
Data set [5] deals with metastatic colorectal cancer. To be noted: cited from earlier work.
For data set [6], the system named is advanced or metastatic FAP+ cancer. The conditions noted are these: cited from earlier work.

Sequence of serum DPPIV (P27487 39-766 limits assumed): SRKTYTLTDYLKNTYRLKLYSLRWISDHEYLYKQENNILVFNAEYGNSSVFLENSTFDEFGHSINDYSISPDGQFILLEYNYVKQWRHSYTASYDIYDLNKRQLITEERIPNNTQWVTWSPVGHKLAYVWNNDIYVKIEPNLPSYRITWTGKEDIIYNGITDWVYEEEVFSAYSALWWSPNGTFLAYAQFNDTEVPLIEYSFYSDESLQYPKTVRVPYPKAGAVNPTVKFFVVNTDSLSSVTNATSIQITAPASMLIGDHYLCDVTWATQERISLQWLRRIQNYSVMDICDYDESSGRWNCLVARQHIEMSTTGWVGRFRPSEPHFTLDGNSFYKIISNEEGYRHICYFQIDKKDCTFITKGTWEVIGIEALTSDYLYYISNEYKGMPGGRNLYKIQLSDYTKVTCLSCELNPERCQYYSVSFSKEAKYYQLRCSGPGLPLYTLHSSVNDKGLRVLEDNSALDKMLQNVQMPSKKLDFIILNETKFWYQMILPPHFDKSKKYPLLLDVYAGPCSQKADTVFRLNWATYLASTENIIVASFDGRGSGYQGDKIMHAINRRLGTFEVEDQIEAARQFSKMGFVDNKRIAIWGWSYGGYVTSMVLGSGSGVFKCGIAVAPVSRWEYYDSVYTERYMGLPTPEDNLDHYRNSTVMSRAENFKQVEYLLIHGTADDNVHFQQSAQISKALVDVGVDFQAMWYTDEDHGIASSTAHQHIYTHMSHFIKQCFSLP

As to `CC(C)[C@H](N)C(=O)N1CCC[C@H]1B(O)O` [talabostat, Talabostat], at serum DPPIV (dose of 600 ug/m2, at 24 hours), the “serum DPPIV inhibition” value is on record as 85%. Besides, on serum DPPIV (phase I, pediatric solid tumors), the dose-limiting toxicities entry is reported as “No dose-limiting toxicities were observed”. Further, the “growth of syngeneic tumors” value in data set [1] was “slowed growth”. Further, the “Grade 5 adverse events” value in [2] (single agent trial, acute renal failure due to cytokine storm) is “one”. Moreover, in [2] (single agent), the clinical responses result was “no complete or partial responses”. For the same compound, in the data set with myeloma cells, the myeloma cell proliferation result is recorded as “concentration-dependent decreased”. In addition, the “patients with adverse events resulting in death” value in [3] (none considered definitely or probably related to talabostat) is given as “eight”. Moreover, in [3] (with docetaxel), the durable complete responses result is listed as “two”, the overall response rate is 9.1%, the partial responses entry is “three” and the stable disease rate was 54%. The efficacy of oxaliplatin result in the data set on colon carcinoma is “enhanced”. In addition, the “osteoclast activity, bone resorption and tumor burden” value in the data set with myeloma is “reduced”. In addition, the “growth of primitive hematopoietic progenitor cells” value in [4] is listed as “promoted growth”. In the data set on stage IV melanoma (in vivo), the “patients discontinuing talabostat due to side effects” value is 18% and the “patients with grade 3 or 4 adverse events” value was 56%. Also, in the data set on stage IV melanoma (with cisplatin, second-line), the “patients with partial response” value is recorded as 8.1% and the “patients with stable disease” value is on record as 62.5%.

In the case of polyphyllin, in the data set on gastric cancer, the “tumor growth in vivo” value was “decreased”. Also, in the data set with CAF, the “CAF proliferation in vitro” value is “decreased”.

For “sibrotuzumab: humanized monoclonal anti-FAP antibody”, the tolerability result in data set [5] (in vivo) is listed as “well tolerated”. Also, the clinical activity result in data set [5] (phase II, trial suspended) was “lack of clinical activity”. Also, the dose limiting toxicity entry in data set [6] (in vivo) is listed as “one”. For the same compound, in data set [6] (phase I), the clinical responses result is recorded as “no clinical responses” and the “patients with stable disease” value is reported as 2/26.
